What follows are compounds tested against Trx-6×His-BCL6 (human BCL6 BTB domain covering amino-acid sequence 5-129) (Homo sapiens (Human), UniProt P41182) (assay: HTRF in vitro assay (BCL6 / BCOR-AF633 peptide)). Settings: further generated data; 1 nM Trx-6×His-BCL6, 300 nM BCOR-AF633 peptide, 0.5 nM anti-6×His-Terbium cryptate.
Type: binding
Protocol: The % inhibition at each concentration was calculated by normalising FRET ratio to the appropriate high (DMSO with all reagents) and low (DMSO without BCL6) controls.
In the case of `Cc1cc(C)n(-c2cc(Nc3ccc4c(c3)n(CCC(C)(C)O)c(=O)n4C)c(C#N)cn2)n1` [Example 15o], the “HTRF pIC50” value is reported as 5.88.
In the case of `CCC(C)(O)CCn1c(=O)n(C)c2ccc(Nc3ccnc(Cl)c3C#N)cc21` (stereo not drawn) [Example 27c, 2-chloro-4-((3-(3-hydroxy-3-methylpentyl)-1-methyl-2-oxo-2,3-dihydro-1H-benzo[d]imidazol-5-yl)amino)nicotinonitrile], the “HTRF pIC50” value is reported as 5.93.
For `CC1OC(=O)NC1Cn1c(=O)n(C)c2ccc(Nc3ccnc(Cl)c3C#N)cc21` (stereo not drawn) [Example 34, 2-chloro-4-((1-methyl-3-((5-methyl-2-oxooxazolidin-4-yl)methyl)-2-oxo-2,3-dihydro-1H-benzo[d]imidazol-5-yl)amino)nicotinonitrile], the “HTRF pIC50” value was 5.31.
In the case of `C[C@@H]1CN(c2ncc(Cl)c(Nc3ccc4c(c3)n(CCC(C)(C)O)c(=O)n4CCN3CCOCC3)n2)C[C@H](C)C1(F)F` [Example 37b, 5-((5-chloro-2-((3S,5R)-4,4-difluoro-3,5-dimethylpiperidin-1-yl)pyrimidin-4-yl)amino)-3-(3-hydroxy-3-methylbutyl)-1-(2-morpholinoethyl)-1,3-dihydro-2H-benzo[d]imidazol-2-one], the “HTRF pIC50” value is reported as 6.47.
`CN(C)C(=O)C1CCN(c2cc(Nc3ccc4c(c3)n(CCC(C)(C)O)c(=O)n4C)c(Cl)cn2)CC1` [Example 36c, 1-(5-chloro-4-((3-(3-hydroxy-3-methylbutyl)-1-methyl-2-oxo-2,3-dihydro-1H-benzo[d]imidazol-5-yl)amino)pyridin-2-yl)-N,N-dimethylpiperidine-4-carboxamide] was tested, and the “HTRF pIC50” value was 5.88.
With `CCN(C)c1ncc(Cl)c(Nc2ccc3c(c2)n(CCC(C)(C)O)c(=O)n3C)n1` [Example 20i] the “HTRF pIC50” value was 6.17.
For `Cn1c(=O)n(C[C@@H]2CCCN2CC(F)F)c2cc(Nc3ccnc(Cl)c3C#N)ccc21` [Example 25i, (S)-2-chloro-4-((3-((1-(2,2-difluoroethyl)pyrrolidin-2-yl)methyl)-1-methyl-2-oxo-2,3-dihydro-1H-benzo[d]imidazol-5-yl)amino)nicotinonitrile], the “HTRF pIC50” value was 5.71.
For `Cc1ccnn1-c1ncc(Cl)c(Nc2ccc3c(c2)n(CCC(C)(C)O)c(=O)n3C)n1` [Example 16b, 5-((5-chloro-2-(5-methyl-1H-pyrazol-1-yl)pyrimidin-4-yl)amino)-3-(3-hydroxy-3-methylbutyl)-1-methyl-1,3-dihydro-2H-benzo[d]imidazol-2-one], the “HTRF pIC50” value was 6.31.
`Cn1c(=O)n(CCC(C)(C)O)c2cc(Nc3ccnc(Br)c3C#N)ccc21` [Example 1k, 2-bromo-4-[[3-(3-hydroxy-3-methyl-butyl)-1-methyl-2-oxo-benzimidazol-5-yl]amino]pyridine-3-carbonitrile] was tested, and the “HTRF pIC50” value was 5.82.
With `COC(Cn1c(=O)n(CCC(C)(C)O)c2cc(Nc3nc(N4C[C@@H](C)C(F)(F)[C@@H](C)C4)ncc3Cl)ccc21)OC` [Example 41a, 5-((5-chloro-2-((3S,5R)-4,4-difluoro-3,5-dimethylpiperidin-1-yl)pyrimidin-4-yl)amino)-1-(2,2-dimethoxyethyl)-3-(3-hydroxy-3-methylbutyl)-1,3-dihydro-2H-benzo[d]imidazol-2-one] the “HTRF pIC50” value was 6.06.
For `Cn1c(=O)n(CCC(C)(C)O)c2cc(Nc3nc(-c4cccs4)ncc3Cl)ccc21` [Example 23d], the “HTRF pIC50” value was 5.62.
With `Cn1c(=O)n(CCC(C)(C)O)c2cc(Nc3cc(C(F)(F)F)ncc3Cl)ccc21` [Example 29d, 5-((5-chloro-2-(trifluoromethyl)pyridin-4-yl)amino)-3-(3-hydroxy-3-methylbutyl)-1-methyl-1,3-dihydro-2H-benzo[d]imidazol-2-one] the “HTRF pIC50” value was 5.48.
With `C#CCC(C)(O)CCn1c(=O)n(C)c2ccc(Nc3ccnc(Cl)c3C#N)cc21` (stereo not drawn) [Example 27a, 2-chloro-4-((3-(3-hydroxy-3-methylhex-5-yn-1-yl)-1-methyl-2-oxo-2,3-dihydro-1H-benzo[d]imidazol-5-yl)amino)nicotinonitrile] the “HTRF pIC50” value was 5.86.
`Cc1cc(C)n(-c2ncc(Cl)c(Nc3ccc4c(c3)[nH]c(=O)n4C)n2)n1` [Example 15h] was tested, and the “HTRF pIC50” value was 5.86.
`CCN1CCC[C@H]1Cn1c(=O)n(C)c2ccc(Nc3ccnc(Cl)c3C#N)cc21` [Example 25c, (S)-2-chloro-4-((3-((1-ethylpyrrolidin-2-yl)methyl)-1-methyl-2-oxo-2,3-dihydro-1H-benzo[d]imidazol-5-yl)amino)nicotinonitrile] was tested, and the “HTRF pIC50” value was 5.34.
For `Cn1c(=O)n(CCC(C)(C)O)c2cc(Nc3nc(N4CC5CCC(C4)C5(F)F)ncc3Cl)ccc21` [Example 35s, 5-((5-chloro-2-(8,8-difluoro-3-azabicyclo[3.2.1]octan-3-yl)pyrimidin-4-yl)amino)-3-(3-hydroxy-3-methylbutyl)-1-methyl-1,3-dihydro-2H-benzo[d]imidazol-2-one], the “HTRF pIC50” value was 6.16.
In the case of `CNC(=O)c1cc(Nc2ccc3c(c2)[nH]c(=O)n3C)c(C#N)c(Cl)n1` [Example 1f, 6-chloro-5-cyano-N-methyl-4-[(1-methyl-2-oxo-3H-benzimidazol-5-yl)amino]pyridine-2-carboxamide], the “HTRF pIC50” value is reported as 5.59.
`Cn1c(=O)n(CCC(C)(C)O)c2cc(Nc3nc(-n4ccc(C(F)(F)F)n4)ncc3Cl)c(F)cc21` [Example 20r] was tested, and the “HTRF pIC50” value was 6.53.
For `COC(=O)c1cc(Nc2ccc3c(c2)n(CCC(C)C(=O)OC)c(=O)n3C)c(C#N)c(Cl)n1` (stereo not drawn) [Example 2a, Methyl 6-chloro-5-cyano-4-[[3-(4-methoxy-3-methyl-4-oxo-butyl)-1-methyl-2-oxo-benzimidazol-5-yl]amino]pyridine-2-carboxylate], the “HTRF pIC50” value was 6.18.

Same assay, conditions: initially generated data; 10 nM Trx-6×His-BCL6, 300 nM BCOR-AF633 peptide, 1 nM anti-6×His-Terbium cryptate
In the case of `C#CCCNC(=O)c1cc(Nc2ccc3c(c2)n(CCC(C)C(=O)OC)c(=O)n3C)c(C#N)c(Cl)n1` (stereo not drawn) [Example 7b, Methyl 4-[6-[[6-(but-3-ynylcarbamoyl)-2-chloro-3-cyano-4-pyridyl]amino]-3-methyl-2-oxo-benzimidazol-1-yl]-2-methyl-butanoate], the “HTRF pIC50” value is reported as 5.84.
`Cn1c(=O)n(CCC(C)(C)O)c2cc(Nc3ccnc(Br)c3C#N)ccc21` [Example 1k, 2-bromo-4-[[3-(3-hydroxy-3-methyl-butyl)-1-methyl-2-oxo-benzimidazol-5-yl]amino]pyridine-3-carbonitrile] was tested, and the “HTRF pIC50” value was 5.63.
`CNC(=O)c1cc(Nc2ccc3c(c2)[nH]c(=O)n3C)c(C#N)c(Cl)n1` [Example 1f, 6-chloro-5-cyano-N-methyl-4-[(1-methyl-2-oxo-3H-benzimidazol-5-yl)amino]pyridine-2-carboxamide] was tested, and the “HTRF pIC50” value was 5.84.
With `COC(=O)c1cc(Nc2ccc3c(c2)n(CCC(C)C(=O)OC)c(=O)n3C)c(C#N)c(Cl)n1` (stereo not drawn) [Example 2a, Methyl 6-chloro-5-cyano-4-[[3-(4-methoxy-3-methyl-4-oxo-butyl)-1-methyl-2-oxo-benzimidazol-5-yl]amino]pyridine-2-carboxylate] the “HTRF pIC50” value was 6.41.

Same assay, conditions: result in words
In the case of `Cn1c(=O)n(CCC(C)(C)O)c2cc(Nc3cc(-n4ccc(C(F)(F)F)n4)ncc3Cl)ncc21` [6-((5-chloro-2-(3-(trifluoromethyl)-1H-pyrazol-1-yl)pyridin-4-yl)amino)-1-(3-hydroxy-3-methylbutyl)-3-methyl-1,3-dihydro-2H-imidazo[4,5-c]pyridin-2-one], the “activity in the HTRF assay” value is reported as “did not exhibit the desired activity”.
`Cn1c(=O)n(CCC(C)(C)O)c2cc(Nc3cc(N4CCC(F)(F)CC4)ncc3Cl)ncc21` [6-((5-chloro-2-(4,4-difluoropiperidin-1-yl)pyridin-4-yl)amino)-1-(3-hydroxy-3-methylbutyl)-3-methyl-1,3-dihydro-2H-imidazo[4,5-c]pyridin-2-one] was tested, and the “activity in the HTRF assay” value was “did not exhibit the desired activity”.
For `Cn1c(=O)n(CC2CCNCC2)c2cc(Nc3ccnc(Cl)c3C#N)ccc21` [2-chloro-4-((1-methyl-2-oxo-3-(piperidin-4-ylmethyl)-2,3-dihydro-1H-benzo[d]imidazol-5-yl)amino)nicotinonitrile], the “activity in the HTRF assay” value was “did not exhibit the desired activity”.
With `Cn1c(=O)n(CCc2ccccc2)c2cc(Nc3ccnc4ccnn34)ccc21` [1-methyl-3-phenethyl-5-(pyrazolo[1,5-a]pyrimidin-7-ylamino)-1,3-dihydro-2H-benzo[d]imidazol-2-one] the “activity in the HTRF assay” value was “did not exhibit the desired activity”.
